This data set in a line: Solubility of iturinic lipopeptide (mycosubtilin) alone or in compositions with surfactants; supernatant after centrifugation analysed by RP-HPLC. It is filed as physicochemical. The protocol: An iturinic lipopeptide (here mycosubtilin), having a purity (on dry matter) of between 45% and 80%, was solubilized alone in water at different concentrations and this control composition was compared to different compositions to which different surfactant compounds were added as described in the application. After 15 days of storage at 21° C., only compositions with a rheological behaviour of the fluid type and a homogeneous appearance (without flow preventing caking and/or phase shift and/or precipitation) are selected, mixed by stirring, then these compositions are centrifuged for 10 minutes at 10,000 g and the supernatant is analysed using the RP-HPLC reference method. This method makes it possible to check the solubility of the iturinic compounds that are then found in the supernatant after centrifugation.
The solubility of iturinic lipopeptide (here mycosubtilin) alone in an aqueous solution as a function of its concentration is shown in FIG. 1. No surfactant is added to composition 1 which contains only iturinic lipopeptides.
The measurement is made on the supernatant after a centrifugation step to eliminate insoluble substances.

For mycosubtilin, the solubility of mycosubtilin entry (alkylthoxyglycoside (AEG 0.4%, composition 8 of FIG. 2), 15 days at room temperature) is “above 30 g/L”; the solubility of mycosubtilin entry (penthylene glycol (50%, composition 7 of FIG. 2), 15 days at room temperature) is recorded as “above 30 g/L”; the solubility of mycosubtilin (presence of fengycin (10%, composition 2 of FIG. 2), 15 days at room temperature, supernatant after centrifugation) is roughly 30 mg/mL; the solubility of mycosubtilin (presence of surfactin (4%, composition 9 of FIG. 2), 15 days at room temperature, supernatant after centrifugation) was roughly 30 mg/mL. Further, the iturinic compound solubility entry (combination of surfactin and fengycin (composition 10 of FIG. 2), compared with fengycin or surfactin alone) is “even higher”. Moreover, the “appearance / solubility beyond the maximum concentration” value (mycosubtilin alone in aqueous solution, between 5 and 25 g/L (FIG. 1)) is “a precipitate that settles can be observed and only a small part remains soluble”. For the same substance, the “maximum concentration at which mycosubtilin solubilizes” value (mycosubtilin alone in aqueous solution, room temperature, no surfactant (FIG. 1)) is recorded as 2 g/L. For the same substance, the “maximum solubility of mycosubtilin” value reads like this: (non-ionic Simulsol and anionic Protéol, 10% each (composition 3 of FIG. 2), 15 days at room temperature) 15.3 mg/mL; (non-ionic compound Emulsogen (0.2%) (composition 6 of FIG. 2), 15 days at room temperature) 11.6 mg/mL; (soy lecithin (4%) coupled with Xanthan gum (0.1%) (composition 4 of FIG. 2), 15 days at room temperature) 1.5 mg/mL. Besides, the “maximum solubility of the iturinic compound” value (surfactin (4%) and non-ionic surfactant Emulsogen (0.2%) (composition 13 of FIG. 2), 15 days at room temperature) was 112 mg/mL.

These data come from patent publication US20200147169A1, “COMPOSITION COMPRISING A HIGH CONCENTRATION OF ITURIN LIPOPEPTIDES” (LIPOFABRIK, priority 2017, published 2020).
